Laboratory results published in PMC12871931, “The importin‐alpha superfamily engages in ethylene signaling by shuttling [sequence] INSENSITIVE 2 from the endoplasmic reticulum to the nucleus” (The Febs Journal, 2025).

Test system: EIN2C^479–1294ΔNLS
Assay: In planta FLIM‐FRET, EIN2C^479–1294ΔNLS‐CER donor, IMPα3‐YFP acceptor
Type: cell-based, Arabidopsis thaliana
Conditions: co‐expression of IMPα3‐YFP acceptor, negative control, t‐test
Excerpt: To further investigate the interaction between members of the IMPα superfamily and EIN2 in planta, we used in vivo fluorescence lifetime microscopy and Förster's resonance energy transfer (FLIM‐FRET). Accordingly, the C‐terminal part of EIN2 (EIN2C^479–1294) was fused to the fluorescent protein Cerulean (CER), serving as a donor, and the IMPα isoforms (IMPα1‐7) were fused to YELLOW FL[…] (YFP), serving as acceptors.
FRET efficiencies ranged between 2.8–4.6%. […] Given that nuclear import of the EIN2C^479–1294ΔNLS variant is abolished, we then tested whether this is due to an impaired interaction with IMPα proteins. […]
A modified version of a previously described procedure was used for the transient transformation of N. benthamiana. […] For co‐infiltration, bacteria solutions were mixed in equal quantities, and Agrobacterium strain GV3101:p19 expressing the p19 silencing inhibitor was added to each mix. […]
Fluorescence lifetime imaging was performed using a protocol described previously. Fluorescence lifetime was measured at a Zeiss LSM 780 confocal microscope (40× water immersion objective, Zeiss C‐PlanApo, NA 1.2). […] Photons were detected in both donor and acceptor channels simultaneously with Tau‐SPADs (PicoQuant, Berlin, Germany). […] Fluorescence lifetime images were acquired in the cytosol, ER, or nucleus in donor‐only samples and samples with IMPα1‐4 and IMPα7. […]

IMPα3‐YFP: A. thaliana IMPα3 fused to YFP, FRET acceptor
fluorescence lifetime of EIN2^479–1294ΔNLS‐CER: did not result in a reduction of the fluorescence lifetime
